# Measurements from US9149038B2, “4-amino-6-(heterocyclic)picolinates and 6-amino-2-(heterocyclic)pyrimidine-4-carboxylates and their use as herbicides” (Dow AgroSciences LLC, priority 2013, dated 2015).
# Like-named read-outs stand apart in the source and are kept apart here.
# Test system: Wheat and Barley and weed species
# Test: Post-Emergent Test III: postemergent herbicidal activity in wheat and barley, visual rating after 21 d and probit GR20/GR50/GR80/GR90 (Tables 9-13)
# Type: in vivo
# Details: for GR20 HORVS / GR20 TRZAS: growth reduction of 20%; for pest or weed control at 17.5 g/ha / pest or weed control at 35 g/ha / pest or weed control at 70 g/ha: post-emergence, 504 h
# Excerpt: Herbicidal evaluations were made visually on a scale of 0 to 100 where 0 represents no activity and 100 represents complete plant death.
# Seeds of the desired test plant species were planted in Sun Gro MetroMix® 306 planting mixture, which typically has a pH of 6.0 to 6.8 and an organic matter content of about 30 percent, in plastic pots with a surface area of 103.2 square centimeters (cm^2). When required to ensure good germination and healthy plants, a fungicide treatment and/or other chemical or physical treatment was applied. The plants were grown for 7-36 days (d) in a greenhouse with an approximate 14 hour (h) photoperiod which was maintained at about 18° C. during the day and 17° C. during the night. Nutrients and water were added on a regular basis and supplemental lighting was provided with overhead metal halide 1000-Watt lamps as necessary. The plants were employed for testing when they reached the second or third true leaf stage.
# A weighed amount, determined by the highest rate to be tested, of each test compound was placed in a 25 mL glass vial and was dissolved in 4 mL of a 97:3 v/v mixture of acetone and DMSO to obtain concentrated stock solutions. […] The concentrated stock solutions obtained were diluted with 20 mL of an aqueous mixture containing acetone, water, isopropyl alcohol, DMSO, Agri-Dex crop oil concentrate, and X-77 surfactant in a 48:39:10:1.5:1.5:0.02 v/v ratio to obtain spray solutions containing the highest application rates. Additional application rates were obtained by serial dilution of 12 mL of the high rate solution into a solution containing 2 mL of a 97:3 v/v mixture of acetone and DMSO and 10 mL of an aqueous mixture containing acetone, water, isopropyl alcohol, DMSO, Agri-Dex crop oil concentrate, and X-77 surfactant in a 48:39:10:1.5:1.5:0.02 v/v ratio to obtain ½×, ¼×, ⅛× and 1/16× rates of the high rate. Compound requirements are based upon a 12 mL application volume at a rate of 187 liters per hectare (L/ha). Formulated compounds were applied to the plant material with an overhead Mandel track sprayer equipped with 8002E nozzles calibrated to deliver 187 L/ha over an application area of 0.503 square meters at a spray height of 18 inches (43 cm) above the average plant canopy height. Control plants were sprayed in the same manner with the solvent blank.
# The treated plants and control plants were placed in a greenhouse as described above and watered by subirrigation to prevent wash-off of the test compounds. After 21 d, the condition of the test plants as compared with that of the untreated plants was determined visually and scored on a scale of 0 to 100 percent where 0 corresponds to no injury and 100 corresponds to complete kill and are presented as indicated in Table 4.
# By applying the well-accepted probit analysis as described by J. Berkson in Journal of the American Statistical Society, 48, 565 (1953) and by D. Finney in “Probit Analysis” Cambridge University Press (1952), herbicidal injury of a specific compound at various rates can be used to calculate GR20, GR50, GR80 and GR90 values, which are defined as growth reduction factors that correspond to the effective dose of herbicide required to provide plant growth reduction (GR) of 20 percent, 50 percent, 80 percent and 90 percent, respectively. Probit analysis was applied to data collected from multiple dose rates of individual compounds utilizing the procedures explained in the following examples. The data for some of the dose rates and analysis of all of the dose rates are captured in the following tables.
# [1] = ALOMY black-grass (Alopecurus myosuroides), growth reduction of 50%, probit analysis
# [2] = ALOMY black-grass (Alopecurus myosuroides), growth reduction of 80%, probit analysis
# [3] = ALOMY black-grass (Alopecurus myosuroides), growth reduction of 90%, probit analysis
# [4] = APESV bentgrass (Apera spica-venti), growth reduction of 50%, probit analysis
# [5] = APESV bentgrass (Apera spica-venti), growth reduction of 80%, probit analysis
# [6] = APESV bentgrass (Apera spica-venti), growth reduction of 90%, probit analysis
# [7] = HORVS barley, spring (crop), probit analysis
# [8] = Hordeum vulgare, HORVS barley, spring (crop), 17.5 g ai/ha, read-out: Visual Growth Reduction (%) 21 Days After Application HORVS
# [9] = Hordeum vulgare, HORVS barley, spring (crop), 35 g ai/ha, read-out: Visual Growth Reduction (%) 21 Days After Application HORVS
# [10] = Hordeum vulgare, HORVS barley, spring (crop), 70 g ai/ha, read-out: Visual Growth Reduction (%) 21 Days After Application HORVS
# [11] = LOLSS ryegrass, growth reduction of 50%, probit analysis
# [12] = LOLSS ryegrass, growth reduction of 80%, probit analysis
# [13] = LOLSS ryegrass, growth reduction of 90%, probit analysis
# [14] = SETVI green foxtail (Setaria viridis), growth reduction of 50%, probit analysis
# [15] = SETVI green foxtail (Setaria viridis), growth reduction of 80%, probit analysis
# [16] = SETVI green foxtail (Setaria viridis), growth reduction of 90%, probit analysis
# [17] = TRZAS wheat, spring (crop), probit analysis
# [18] = Triticum aestivum, TRZAS wheat, spring (crop), 17.5 g ai/ha, read-out: Visual Growth Reduction (%) 21 Days After Application TRZAS
# [19] = Triticum aestivum, TRZAS wheat, spring (crop), 35 g ai/ha, read-out: Visual Growth Reduction (%) 21 Days After Application TRZAS
# [20] = Triticum aestivum, TRZAS wheat, spring (crop), 70 g ai/ha, read-out: Visual Growth Reduction (%) 21 Days After Application TRZAS
# [21] = ALOMY black-grass (Alopecurus myosuroides), 17.5 g ai/ha, read-out: Visual Growth Reduction (%) 21 Days After Application ALOMY
# [22] = ALOMY black-grass (Alopecurus myosuroides), 35 g ai/ha, read-out: Visual Growth Reduction (%) 21 Days After Application ALOMY
# [23] = ALOMY black-grass (Alopecurus myosuroides), 70 g ai/ha, read-out: Visual Growth Reduction (%) 21 Days After Application ALOMY
# [24] = APESV bentgrass (Apera spica-venti), 17.5 g ai/ha, read-out: Visual Growth Reduction (%) 21 Days After Application APESV
# [25] = APESV bentgrass (Apera spica-venti), 35 g ai/ha, read-out: Visual Growth Reduction (%) 21 Days After Application APESV
# [26] = APESV bentgrass (Apera spica-venti), 70 g ai/ha, read-out: Visual Growth Reduction (%) 21 Days After Application APESV
# [27] = LOLSS ryegrass, 17.5 g ai/ha, read-out: Visual Growth Reduction (%) 21 Days After Application LOLSS
# [28] = LOLSS ryegrass, 35 g ai/ha, read-out: Visual Growth Reduction (%) 21 Days After Application LOLSS
# [29] = LOLSS ryegrass, 70 g ai/ha, read-out: Visual Growth Reduction (%) 21 Days After Application LOLSS
# [30] = SETVI green foxtail (Setaria viridis), 17.5 g ai/ha, read-out: Visual Growth Reduction (%) 21 Days After Application SETVI
# [31] = SETVI green foxtail (Setaria viridis), 35 g ai/ha, read-out: Visual Growth Reduction (%) 21 Days After Application SETVI
# [32] = SETVI green foxtail (Setaria viridis), 70 g ai/ha, read-out: Visual Growth Reduction (%) 21 Days After Application SETVI
smiles,measurement,setting,value
COC(=O)c1nc(-c2cc3c(cc2F)OC(F)(F)O3)c(F)c(N)c1Cl [Compound 9],GR50 ALOMY,[1],13 g ai/ha
same,GR80 ALOMY,[2],26 g ai/ha
same,GR90 ALOMY,[3],38 g ai/ha
same,GR50 APESV,[4],30 g ai/ha
same,GR80 APESV,[5],61 g ai/ha
same,GR90 APESV,[6],89 g ai/ha
same,GR20 HORVS,[7],3 g ai/ha
same,pest or weed control at 17.5 g/ha,[8],60 to 74%
same,pest or weed control at 35 g/ha,[9],85 to 94%
same,pest or weed control at 70 g/ha,[10],85 to 94%
same,Visual Growth Reduction (%) 21 Days After Application KCHSC,"KCHSC kochia (Kochia scoparia), 17.5 g ai/ha",G (0-29)
same,Visual Growth Reduction (%) 21 Days After Application KCHSC,"KCHSC kochia (Kochia scoparia), 35 g ai/ha",G (0-29)
same,Visual Growth Reduction (%) 21 Days After Application KCHSC,"KCHSC kochia (Kochia scoparia), 70 g ai/ha",G (0-29)
same,GR50 KCHSC,"KCHSC kochia (Kochia scoparia), growth reduction of 50%, probit analysis",>70 g ai/ha
same,GR80 KCHSC,"KCHSC kochia (Kochia scoparia), growth reduction of 80%, probit analysis",>70 g ai/ha
same,GR90 KCHSC,"KCHSC kochia (Kochia scoparia), growth reduction of 90%, probit analysis",>70 g ai/ha
same,GR50 LOLSS,[11],70 g ai/ha
same,GR80 LOLSS,[12],>70 g ai/ha
same,GR90 LOLSS,[13],>70 g ai/ha
same,GR50 SETVI,[14],21 g ai/ha
same,GR80 SETVI,[15],46 g ai/ha
same,GR90 SETVI,[16],71 g ai/ha
same,GR20 TRZAS,[17],4 g ai/ha
same,pest or weed control at 17.5 g/ha,[18],60 to 74%
same,pest or weed control at 35 g/ha,[19],75 to 84%
same,pest or weed control at 70 g/ha,[20],75 to 84%
same,pest or weed control at 17.5 g/ha,[21],75 to 84%
same,pest or weed control at 35 g/ha,[22],85 to 94%
same,pest or weed control at 70 g/ha,[23],85 to 94%
same,pest or weed control at 17.5 g/ha,[24],0 to 29%
same,pest or weed control at 35 g/ha,[25],60 to 74%
same,pest or weed control at 70 g/ha,[26],75 to 84%
same,pest or weed control at 17.5 g/ha,[27],0 to 29%
same,pest or weed control at 35 g/ha,[28],0 to 29%
same,pest or weed control at 70 g/ha,[29],45 to 59%
same,pest or weed control at 17.5 g/ha,[30],45 to 59%
same,pest or weed control at 35 g/ha,[31],75 to 84%
same,pest or weed control at 70 g/ha,[32],85 to 94%
Nc1c(F)c(-c2ccc3c(c2F)OC(F)(F)O3)nc(C(=O)O)c1Cl [Compound 11],GR50 ALOMY,[1],41 g ai/ha
same,GR80 ALOMY,[2],>70 g ai/ha
same,GR90 ALOMY,[3],>70 g ai/ha
same,GR50 APESV,[4],25 g ai/ha
same,GR80 APESV,[5],52 g ai/ha
same,GR90 APESV,[6],>70 g ai/ha
same,GR20 HORVS,[7],3 g ai/ha
same,pest or weed control at 17.5 g/ha,[8],60 to 74%
same,pest or weed control at 35 g/ha,[9],60 to 74%
same,pest or weed control at 70 g/ha,[10],85 to 94%
same,GR50 LOLSS,[11],31 g ai/ha
same,GR80 LOLSS,[12],62 g ai/ha
same,GR90 LOLSS,[13],>70 g ai/ha
same,Visual Growth Reduction (%) 21 Days After Application MATCH,"MATCH wild chamomile (Matricaria recutita L.), 17.5 g ai/ha",G (0-29)
same,Visual Growth Reduction (%) 21 Days After Application MATCH,"MATCH wild chamomile (Matricaria recutita L.), 35 g ai/ha",F (30-44)
same,Visual Growth Reduction (%) 21 Days After Application MATCH,"MATCH wild chamomile (Matricaria recutita L.), 70 g ai/ha",E (45-59)
same,GR50 MATCH,"MATCH wild chamomile (Matricaria recutita L.), growth reduction of 50%, probit analysis",65 g ai/ha
same,GR80 MATCH,"MATCH wild chamomile (Matricaria recutita L.), growth reduction of 80%, probit analysis",>70 g ai/ha
same,GR90 MATCH,"MATCH wild chamomile (Matricaria recutita L.), growth reduction of 90%, probit analysis",>70 g ai/ha
same,GR50 SETVI,[14],18 g ai/ha
same,GR80 SETVI,[15],37 g ai/ha
same,GR90 SETVI,[16],53 g ai/ha
same,GR20 TRZAS,[17],0.12 g ai/ha
same,pest or weed control at 17.5 g/ha,[18],75 to 84%
same,pest or weed control at 35 g/ha,[19],85 to 94%
same,pest or weed control at 70 g/ha,[20],85 to 94%
same,Visual Growth Reduction (%) 21 Days After Application VERPE,"VERPE bird's-eye speedwell (veronica persica), 17.5 g ai/ha",E (45-59)
same,Visual Growth Reduction (%) 21 Days After Application VERPE,"VERPE bird's-eye speedwell (veronica persica), 35 g ai/ha",D (60-74)
same,Visual Growth Reduction (%) 21 Days After Application VERPE,"VERPE bird's-eye speedwell (veronica persica), 70 g ai/ha",B (85-94)
same,GR50 VERPE,"VERPE bird's-eye speedwell (veronica persica), growth reduction of 50%, probit analysis",17 g ai/ha
same,GR80 VERPE,"VERPE bird's-eye speedwell (veronica persica), growth reduction of 80%, probit analysis",41 g ai/ha
same,GR90 VERPE,"VERPE bird's-eye speedwell (veronica persica), growth reduction of 90%, probit analysis",65 g ai/ha
same,pest or weed control at 17.5 g/ha,[21],30 to 44%
same,pest or weed control at 35 g/ha,[22],45 to 59%
same,pest or weed control at 70 g/ha,[23],60 to 74%
same,pest or weed control at 17.5 g/ha,[24],30 to 44%
same,pest or weed control at 35 g/ha,[25],60 to 74%
same,pest or weed control at 70 g/ha,[26],85 to 94%
same,pest or weed control at 17.5 g/ha,[27],45 to 59%
same,pest or weed control at 35 g/ha,[28],60 to 74%
same,pest or weed control at 70 g/ha,[29],75 to 84%
same,pest or weed control at 17.5 g/ha,[30],45 to 59%
same,pest or weed control at 35 g/ha,[31],75 to 84%
same,pest or weed control at 70 g/ha,[32],85 to 94%
